Results from US20100222421A1, “Usage of Baicalein in the Preparation of a Pharmaceutical Composition for the Treatment of Traumatic Brain Injury” (National Defense Medical Center, priority 2009, published 2010).

Assays:
[1] = tested on: rats with controlled cortical impact (CCI) injury; experiment: Modified neurological severity score (mNSS) after CCI injury; format: in vivo, rat; settings: P<0.05
Procedure: A previously described CCI injury procedure was utilized (Chen et al., 2003). Male Sprague-Dawley rats, which have body weight of 250-300 g, were anaesthetized with sodium pentobarbital (i.p.; 50 mgkg^−1; Rhone Merieux, Harlow, UK) and placed in a stereotaxic frame. A 5-mm craniotomy was performed over the left parietal cortex, centered on the coronal suture and 3 mm lateral to the sagittal suture. Considerable care was taken to avoid injury to the underlying dura. Injury was made using a pneumatic piston with a rounded metal tip (2.5 mm diameter) that was angled 22.5° C. to the vertical so that the tip was perpendicular with the brain surface at the centre of the craniotomy. A velocity of 4 ms^−1 and a deformation depth 2 mm below the dura were used. The bone flap was immediately replaced and sealed, and the scalp was closed with sutures. Body temperature was monitored throughout the surgery by a rectal probe; temperature was maintained at 37.0±0.5° C. using a heated pad. Rats were placed in a heated cage to maintain body temperature, while recovering from anaesthesia. Baicalein (30 mg kg^−1) dissolved in 10% dimethyl sulphoxide (0.25-0.3 mL) or a corresponding volume of vehicle (10% dimethyl sulphoxide) was administered i.p. immediately following injury or daily for 4 days (immediately, 25, 49 and 73 h) after injury. Behaviour testing using the rotarod, tactile adhesive removal, mNSS and beam walk tests was performed at […] as well as 4, 7, 14, 21 and 28 days post-injury. At 14 and 28 days, the animals were killed, perfused intravascularly and their brains were processed with cresyl violet staining to assess contusion volume (n=8 for each group). […] Behaviour testing was performed before CCI and at […] after CCI by an observer who was unaware of the experimental treatments. The battery of tests consisted of the rotarod motor test, tactile adhesive-removal somatosensory test, mNSS and beam walk test. […] One point was scored for the inability to perform the test or for the lack of a tested reflex; thus, the higher the score, the more severe the injury. […]

[2] = tested on: IL-1β mRNA; experiment: Real-time quantitative RT-PCR, IL-1β mRNA after CCI injury; format: in vivo, rat; settings: single-dose 30 mg kg^-1 i.p.; ipsilateral cortex, 6 h after injury; P<0.01
Procedure: A previously described CCI injury procedure was utilized (Chen et al., 2003). Male Sprague-Dawley rats, which have body weight of 250-300 g, were anaesthetized with sodium pentobarbital (i.p.; 50 mgkg^−1; Rhone Merieux, Harlow, UK) and placed in a stereotaxic frame. A 5-mm craniotomy was performed over the left parietal cortex, centered on the coronal suture and 3 mm lateral to the sagittal suture. Considerable care was taken to avoid injury to the underlying dura. Injury was made using a pneumatic piston with a rounded metal tip (2.5 mm diameter) that was angled 22.5° C. to the vertical so that the tip was perpendicular with the brain surface at the centre of the craniotomy. A velocity of 4 ms^−1 and a deformation depth 2 mm below the dura were used. […] Body temperature was monitored throughout the surgery by a rectal probe; temperature was maintained at 37.0±0.5° C. using a heated pad. […] Testing after injury was as follows: (1) real-time quantitative RT-PCR analysis for TNF-α, IL-1β and IL-6 mRNA expression at 6 h post-injury (n=7 for each group); (2) FluoroJade B (FJB) staining, TNF-α, IL-1β and IL-6 immunohistochemistry, as well as ELISA at 24 h post-injury to assess degenerative neurons and to determine cytokine expression (n=7 for each group). […] Approximately 50 mg tissue was collected from the ipsilateral (injured) hemisphere and processed for real-time quantitative RT-PCR. […]

## O=c1cc(-c2ccccc2)oc2cc(O)c(O)c(O)c12 [baicalein]
[1]; 30 mg kg^-1 i.p., days 4 and 7 after injury
  mNSS neurological deficit, multiple-dose versus single-dose treatment: significantly greater reduction
[1]; multiple-dose 30 mg kg^-1 i.p. daily for 4 days, days 1-28
  mNSS scores versus vehicle-treated group: significantly less
[1]; single-dose 30 mg kg^-1 i.p., days 1-14
  mNSS scores versus vehicle-treated group: significantly less
[2]
  IL-1β mRNA level, % of level in vehicle-treated injured rats: 63%
